Data taken from the supplement of paper PMC11061612.

What was measured:
Assay in all cases: Bliss excess, mean over the matrix (fraction); higher = more synergy
[1] = system: HCT-15 (Colorectal Carcinoma)
Summary of the method: (§1)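 After 24 hours at 37°C and 5% CO2 in 1536-well plates, cells in DMEM/F12 or RPMI plus 10% FBS received two-drug dose matrices for 72 hours. Viability came from CellTiter-Glo 2.0 luminescence and was scaled as inhibition, anchored at 0 by vehicle wells and at 1 by blank wells. Combination Emax is taken as the second-highest inhibition in the matrix, and Bliss excess as the observed combination effect less EA + EB − EA·EB, with EA and EB the single-agent effects.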

[2] = system: OPM-2 (Plasma Cell Myeloma)
Summary of the method: as §1

[3] = system: HSC-39 (Gastric Carcinoma)
Summary of the method: as §1

[4] = system: CAL-62 (Thyroid Gland Carcinoma)
Summary of the method: as §1

[5] = system: LXF-289 (Lung Adenocarcinoma)
Summary of the method: as §1

[6] = system: 23132-87 (Gastric Carcinoma)
Summary of the method: as §1

GB-1 (Glioblastoma) = system: GB-1 (Glioblastoma)
Summary of the method: as §1

[7] = system: CAL-120 (Breast Carcinoma)
Summary of the method: as §1

[8] = system: RKN (Other Solid Carcinomas)
Summary of the method: as §1

[9] = system: LB996-RCC (Kidney Carcinoma)
Summary of the method: as §1

[10] = system: TE-8 (Esophageal Squamous Cell Carcinoma)
Summary of the method: as §1

[11] = system: L-1236 (Hodgkin's Lymphoma)
Summary of the method: as §1

[12] = system: OVMIU (Ovarian Carcinoma)
Summary of the method: as §1

[13] = system: PSN1 (Pancreatic Carcinoma)
Summary of the method: as §1

[14] = system: RERF-GC-1B (Gastric Carcinoma)
Summary of the method: as §1

[15] = system: VAL (B-Cell Non-Hodgkin's Lymphoma)
Summary of the method: as §1

[16] = system: RCM-1 (Colorectal Carcinoma)
Summary of the method: as §1

[17] = system: SU-DHL-10 (B-Cell Non-Hodgkin's Lymphoma)
Summary of the method: as §1

[18] = system: REH (B-Lymphoblastic Leukemia)
Summary of the method: as §1

WM278 (Melanoma) = system: WM278 (Melanoma)
Summary of the method: as §1

| SMILES | Bliss excess [1] | Bliss excess [2] | Bliss excess [3] | Bliss excess [4] | Bliss excess [5] | Bliss excess [6] | Bliss excess (GB-1 (Glioblastoma)) | Bliss excess [7] | Bliss excess [8] | Bliss excess [9] | Bliss excess [10] | Bliss excess [11] | Bliss excess [12] | Bliss excess [13] | Bliss excess [14] | Bliss excess [15] | Bliss excess [16] | Bliss excess [17] | Bliss excess [18] | Bliss excess (WM278 (Melanoma)) |
| --- | --- | --- | --- | --- | --- | --- | --- | --- | --- | --- | --- | --- | --- | --- | --- | --- | --- | --- | --- | --- |
| NC1(C(=O)N[C@@H](CCO)c2ccc(Cl)cc2)CCN(c2ncnc3[nH]ccc23)CC1 [Capivasertib] + CC(=O)c1c(C)c2cnc(Nc3ccc(N4CCNCC4)cn3)nc2n(C2CCCC2)c1=O [Palbociclib] (first compound max 10 µM, 7x7, partner max 10 µM) | 0.0152 | 0.0472 | 0.0906 | 0.0169 | 0.0199 | -0.0183 | -0.0497 | -0.0221 | -0.0803 | 0.0312 | -0.0254 | -0.0829 | -0.0168 | 0.0408 | -0.0203 | -0.0051 | -0.0058 | 0.0478 | 0.0022 | -0.0217 |
| NC1(C(=O)N[C@@H](CCO)c2ccc(Cl)cc2)CCN(c2ncnc3[nH]ccc23)CC1 [Capivasertib] + CC(C)n1c(=O)n(C)c2cnc3cc(F)c(-c4ccc(OCCCN5CCCCC5)nc4)cc3c21 [AZD1390] (first compound max 10 µM, 7x7, partner max 0.3 µM) | -0.036 | -0.0346 | 0.0112 | -0.0389 | -0.0825 | -0.055 | -0.0399 | -0.086 | -0.0477 | -0.0871 | -0.0571 | 0.0156 | -0.0592 | -0.0422 | -0.0323 | -0.0887 | -0.0274 | 0.0402 | -0.135 | -0.0671 |
| NC1(C(=O)N[C@@H](CCO)c2ccc(Cl)cc2)CCN(c2ncnc3[nH]ccc23)CC1 [Capivasertib] + CCN(CCO)CCCOc1ccc2c(Nc3cc(CC(=O)Nc4cccc(F)c4)[nH]n3)ncnc2c1 [AZD2811] (first compound max 10 µM, 7x7, partner max 1 µM) | -0.0021 | 0.0027 | -0.0799 | 0.0437 | 0.0856 | 0.008 | -0.0143 | 0.0165 | -0.0711 | -0.0146 | -0.0406 | -0.024 | -0.0385 | -0.0309 | 0.0188 | -0.162 | -0.0426 | -0.0466 | -0.0591 | -0.065 |
| NC1(C(=O)N[C@@H](CCO)c2ccc(Cl)cc2)CCN(c2ncnc3[nH]ccc23)CC1 [Capivasertib] + COc1nnc2ccc(N3CCC(c4ccc(OCCN5CCN(C)C(=O)[C@H]5C)cc4)CC3)nn12 [AZD5153] (first compound max 10 µM, 7x7, partner max 1 µM) | 0.0306 | -0.0129 | 0.0142 | -0.0078 | 0.0995 | 0.0623 | 0.0557 | 0.101 | -0.0451 | 0.0131 | -0.0718 | -0.0938 | 0.0026 | -0.0448 | 0.0375 | -0.0867 | 0.0153 | -0.027 | 0.0272 | 0.0078 |
| NC1(C(=O)N[C@@H](CCO)c2ccc(Cl)cc2)CCN(c2ncnc3[nH]ccc23)CC1 [Capivasertib] + C[C@@H]1COCCN1C2=NC(=NC(=C2)C3(CC3)[S@](=N)(=O)C)C4=C5C=CNC5=NC=C4 [AZD6738] (first compound max 10 µM, 7x7, partner max 10 µM) | -0.0104 | -0.0746 | -0.0181 | -0.0306 | -0.0889 | 0.0024 | -0.054 | -0.0283 | -0.124 | -0.0418 | -0.0784 | -0.0645 | -0.0471 | -0.0084 | -0.0076 | -0.0735 | -0.0863 | -0.0359 | -0.0859 | -0.0637 |
| NC1(C(=O)N[C@@H](CCO)c2ccc(Cl)cc2)CCN(c2ncnc3[nH]ccc23)CC1 [Capivasertib] + Cn1cnc2c(F)c(Nc3ccc(Br)cc3Cl)c(C(=O)NOCCO)cc21 [Selumetinib] (first compound max 10 µM, 7x7, partner max 10 µM) | 0.0387 | 0.0515 | 0.2 | 0.0695 | 0.0075 | 0.0687 | 0.0042 | 0.0219 | 0.0373 | 0.0146 | -0.0324 | 0.0433 | -0.0255 | -0.0255 | 0.0077 | -0.0242 | 0.019 | 0.0269 | -0.005 | 0.0221 |
| Cc1nc(Nc2ncc(C(=O)Nc3c(C)cccc3Cl)s2)cc(N2CCN(CCO)CC2)n1 [Dasatinib] + CC(=O)Nc1cccc(-n2c(=O)n(C3CC3)c(=O)c3c(Nc4ccc(I)cc4F)n(C)c(=O)c(C)c32)c1 [Trametinib] (first compound max 2 µM, 7x7, partner max 1 µM) | 0.0847 | 0.0108 | -0.0706 | 0.163 | -0.0439 | -0.045 | 0.121 | 0.032 | 0.0011 | -0.0527 | -0.0436 | 0.008 | -0.0298 | 0.0121 | 0.0784 | -0.0543 | 0.018 | 0.0745 | -0.0421 | 0.162 |
| COc1cccc2c1C(=O)c1c(O)c3c(c(O)c1C2=O)C[C@@](O)(C(=O)CO)C[C@@H]3O[C@H]1C[C@H](N)[C@H](O)[C@H](C)O1 [Doxorubicin] + Cc1cc2ncnn2cc1Nc1ncc2c(n1)n(C1CCOCC1)c(=O)n2C [AZD7648] (first compound max 1 µM, 7x7, partner max 10 µM) | 0.0644 | 0.0221 | 0.0909 | 0.0885 | 0.0233 | 0.049 | 0.0165 | 0.0064 | 0.0697 | 0.0561 | 0.0947 | 0.0332 | -0.0193 | 0.0173 | -0.0142 | 0.0974 | 0.0199 | 0.0982 | 0.177 | 0.0204 |
| COc1cc2ncnc(Nc3ccc(F)c(Cl)c3)c2cc1OCCCN1CCOCC1 [Gefitinib] + CC(C)n1c(=O)n(C)c2cnc3cc(F)c(-c4ccc(OCCCN5CCCCC5)nc4)cc3c21 [AZD1390] (first compound max 10 µM, 7x7, partner max 0.3 µM) | -0.0533 | -0.0151 | 0.0185 | -0.0451 | -0.0717 | -0.025 | -0.0815 | -0.0446 | -0.0646 | -0.0069 | -0.075 | -0.0467 | -0.0564 | -0.0338 | -0.092 | -0.0608 | -0.0395 | -0.0254 | -0.0498 | -0.0728 |
| CS(=O)(=O)CCNCc1ccc(-c2ccc3ncnc(Nc4ccc(OCc5cccc(F)c5)c(Cl)c4)c3c2)o1 [Lapatinib] + C[C@@H](Oc1cc(-c2cnn(C3CCNCC3)c2)cnc1N)c1c(Cl)ccc(F)c1Cl [Crizotinib] (first compound max 10 µM, 7x7, partner max 10 µM) | -0.0205 | -0.0611 | -0.0117 | -0.0436 | -0.0848 | 0.0195 | -0.11 | 0.0084 | -0.05 | -0.0196 | -0.0294 | 0.0239 | -0.0097 | -0.0443 | -0.0237 | -0.0531 | -0.0107 | -0.0087 | -0.0347 | -0.0284 |
| CC(=O)c1c(C)c2cnc(Nc3ccc(N4CCNCC4)cn3)nc2n(C2CCCC2)c1=O [Palbociclib] + CC1(C)CCC(CN2CCN(c3ccc(C(=O)NS(=O)(=O)c4ccc(NCC5CCOCC5)c([N+](=O)[O-])c4)c(Oc4cnc5[nH]ccc5c4)c3)CC2)=C(c2ccc(Cl)cc2)C1 [Venetoclax] (first compound max 10 µM, 7x7, partner max 1 µM) | 0.0105 | 0.017 | -0.0476 | -0.029 | -0.0189 | -0.0416 | -0.0448 | -0.0523 | -0.0841 | 0.0044 | -0.0784 | 0.0003 | -0.0402 | -0.0149 | -0.048 | -0.0109 | -0.0717 | -0.0873 | -0.0446 | -0.0338 |
| CC(=O)c1c(C)c2cnc(Nc3ccc(N4CCNCC4)cn3)nc2n(C2CCCC2)c1=O [Palbociclib] + Cc1c2c(nn1C)CSCc1cc(n(C)n1)CSc1cc(c3ccccc3c1)OCCCc1c(C(=O)O)n(C)c3c-2c(Cl)ccc13 [AZD5991] (first compound max 10 µM, 7x7, partner max 1 µM) | 0.0011 | 0.0009 | -0.0383 | -0.0047 | 0.008 | -0.198 | -0.102 | -0.0209 | -0.0557 | -0.0238 | -0.108 | -0.0341 | -0.0416 | -0.0111 | -0.0116 | 0.0533 | -0.0561 | -0.0199 | -0.0213 | -0.0395 |
| CC(=O)c1c(C)c2cnc(Nc3ccc(N4CCNCC4)cn3)nc2n(C2CCCC2)c1=O [Palbociclib] + Cn1cnc2c(F)c(Nc3ccc(Br)cc3Cl)c(C(=O)NOCCO)cc21 [Selumetinib] (first compound max 10 µM, 7x7, partner max 10 µM) | 0.0538 | 0.0343 | -0.0069 | 0.0248 | -0.0054 | -0.0683 | -0.0016 | -0.0361 | -0.0279 | -0.0426 | -0.0454 | -0.0841 | -0.0097 | 0.0226 | -0.0329 | 0.0029 | -0.0286 | 0.0392 | -0.0229 | -0.0152 |
| COc1cccc(OCCCN)c1-c1cc(Nc2cnc(C#N)cn2)n[nH]1 [Prexasertib] + C=CCn1c(=O)c2cnc(Nc3ccc(N4CCN(C)CC4)cc3)nc2n1-c1cccc(C(C)(C)O)n1 [AZD1775] (first compound max 1 µM, partner max 1 µM) | 0.0406 | 0.0569 | 0.05 | 0.137 | 0.0418 | 0.0641 | 0.0483 | 0.0551 | 0.117 | 0.0427 | 0.0893 | -0.0943 | 0.0574 | 0.178 | 0.049 | 0.0026 | -0.0248 | 0.0558 | 0.114 | 0.0753 |
| COc1cccc(OCCCN)c1-c1cc(Nc2cnc(C#N)cn2)n[nH]1 [Prexasertib] + CCc1c2c(nc3ccc(O)cc13)-c1cc3c(c(=O)n1C2)COC(=O)[C@]3(O)CC [SN-38] (first compound max 1 µM, 7x7, partner max 0.3 µM) | 0.051 | -0.0125 | 0.0026 | -0.0543 | -0.0201 | -0.0307 | -0.0438 | 0.0574 | 0.134 | -0.0334 | 0.0456 | -0.0584 | -0.0921 | 0.0569 | 0.0318 | -0.0702 | -0.0729 | 0.035 | -0.0054 | -0.0479 |
